Test results reported in patent US20250282746A1, “HALOGEN-SUBSTITUTED ISOINDOLINE COMPOUND AND USE THEREOF” (CHENGDU FENDI PHARMACEUTICAL CO., LTD., priority 2022, published 2025).
Read-outs that look alike come from different tables or passages of the source.

How the values were obtained:
[1] = test system: MV-4-11 cells; assay: Antiproliferative activity against MV-4-11 cells (CellTiter-Glo, 72 h); format: cell-based; details: Homo sapiens, read-out: Antiproliferative activity IC50
Protocol: MV411 cells in the logarithmic growth phase were diluted in a medium (RPMI+10% FBS) and plated at 5,000 cells/well in 96-well whole black plates (WHB) with 50 μL/well. After plating, the plates were incubated in an incubator at 5% CO2 and 37° C. for 24 h before the compounds were added. The compounds were prepared into a 10 mM stock solution in DMSO and diluted in a culture medium to the desired concentrations (a final DMSO concentration of 0.2%). […] The plates were incubated at 5% CO2 and 37° C. for 72 h. After the incubation was complete, the plates were equilibrated at room temperature for 30 min. CellTiter-Glo® Reagent (Promega G7573) was added at 100 μL/well. The plates were shaken for 12 min on a microplate shaker. The luminescence value was measured at room temperature by the GloMax navigator (Promega GM2010).

[2] = biological target: T1, GSPT1 protein (Homo sapiens, UniProt P15170); assay: Degradation of GSPT1 protein in NB-4 cells (Western blot); format: cell-based; details: for inhibition at 1 µM: read-out: GSPT1 degradation
T1 construct: The whole cell lysate was prepared using a RIPA lysis buffer; endogenous in cells; host or cells: NB-4 cells
T1 sequence (P15170 whole entry): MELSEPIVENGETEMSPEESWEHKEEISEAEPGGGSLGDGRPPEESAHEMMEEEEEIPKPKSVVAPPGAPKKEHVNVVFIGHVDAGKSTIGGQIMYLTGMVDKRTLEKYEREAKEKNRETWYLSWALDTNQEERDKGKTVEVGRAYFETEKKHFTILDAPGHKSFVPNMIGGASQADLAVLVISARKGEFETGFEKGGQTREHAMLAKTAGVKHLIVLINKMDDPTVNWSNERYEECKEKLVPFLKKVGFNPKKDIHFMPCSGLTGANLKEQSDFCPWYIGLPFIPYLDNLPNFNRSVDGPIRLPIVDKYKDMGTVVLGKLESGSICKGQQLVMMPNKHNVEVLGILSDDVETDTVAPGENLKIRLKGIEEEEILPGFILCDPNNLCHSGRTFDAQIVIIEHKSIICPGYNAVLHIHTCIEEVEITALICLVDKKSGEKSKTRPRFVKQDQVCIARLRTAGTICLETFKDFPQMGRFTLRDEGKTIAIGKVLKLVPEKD
Protocol: 150 μL of DMSO and the compounds (1 μM) were added, and the mixture was incubated in an incubator at 5% CO2 and 37° C. for 6 h. The cells were centrifuged, and the culture medium was discarded. PBS was added for washing and then discarded. The whole cell lysate was prepared using a RIPA lysis buffer containing a protease inhibitor cocktail and a phosphatase inhibitor, and incubated on ice for 30 min. The mixture was centrifuged, and the cell debris was discarded. The whole cell lysate supernatant was collected and transferred to a fresh EP tube. Samples were prepared using a loading buffer after a BCA protein assay. The samples were incubated in a metal bath at 100° C. for 10 min.
The samples were electrophoretically separated from proteins on a 4-20% precast gel (SDS-PAGE gel), transferred to a PVDF membrane, blocked with 5% NFDM/TBST for 1 h at room temperature, co-incubated overnight at 4° C. with the primary antibody, and co-incubated for 2 h at room temperature with the secondary antibody on the next day. The signals were detected on the […]™ imaging system.

Row | SMILES | IC50 ([1]; MV4-11, MV-4-11 cells, 72 h) [nM] | inhibition at 1 µM ([2]; NB-4 cells, compound 1 μM, 6 h) [%] | further results
1 | O=C(CCSC(=S)SCc1ccccc1)NCc1ccc2c(c1F)CN(C1CCC(=O)NC1=O)C2=O (centres unmarked) [FDAB-161] | < 1 | > 80 | 
2 | O=C1CCC(N2Cc3cc(CNC(=O)c4cncs4)c(F)cc3C2=O)C(=O)N1 (centres unmarked) [FDAB-44] | > 1000 | < 25 | 
3 | CCCCCCCCCCCCSC(=S)SC(C)(C)C(=O)NCc1ccc2c(c1F)CN(C1CCC(=O)NC1=O)C2=O (centres unmarked) [FDAB-163] | > 1000 | < 25 | 
4 | O=C1CCC(N2Cc3c(ccc(CNC(=O)c4ccc(Cl)cc4Cl)c3F)C2=O)C(=O)N1 (centres unmarked) [FDAB-50] | 1 to 10 | > 80 | 
5 | C=Cc1ccc(C(=O)NCc2ccc3c(c2F)CN(C2CCC(=O)NC2=O)C3=O)cc1 (centres unmarked) [FDAB-95] | 1 to 10 | > 80 | 
6 | N#Cc1cc(C(=O)NCc2ccc3c(c2Cl)CN(C2CCC(=O)NC2=O)C3=O)ccc1Cl (centres unmarked) [FDAB-78] | > 1000 | < 25 | 
7 | O=C1CCC(N2Cc3c(ccc(CNC(=O)c4ccc(Cl)cc4)c3Cl)C2=O)C(=O)N1 (centres unmarked) [FDAB-70] | 100 to 1000 | 25 to 50 | 
8 | O=C1CCC(N2Cc3cc(CNC(=O)c4cc5cc(Cl)ccc5o4)cc(F)c3C2=O)C(=O)N1 (centres unmarked) [FDAB-22] | > 1000 | < 25 | 
9 | O=C(COc1c(Cl)cc(Cl)cc1Cl)NCc1ccc2c(c1F)CN(C1CCC(=O)NC1=O)C2=O (centres unmarked) [FDAB-152] | < 1 | > 80 | 
10 | O=C1CCC(N2Cc3cc(CNC(=O)c4cccnc4)c(F)cc3C2=O)C(=O)N1 (centres unmarked) [FDAB-30] | > 1000 | < 25 | 
11 | COc1cc(C)ccc1C(=O)NCc1ccc2c(c1F)CN(C1CCC(=O)NC1=O)C2=O (centres unmarked) [FDAB-104] | > 1000 | < 25 | 
12 | O=C(Cc1c[nH]c2cccc(Br)c12)NCc1ccc2c(c1F)CN(C1CCC(=O)NC1=O)C2=O (centres unmarked) [FDAB-135] | 1 to 10 | > 80 | 
13 | Nc1cccc(C(=O)NCc2cc3c(cc2F)C(=O)N(C2CCC(=O)NC2=O)C3)c1 (centres unmarked) [FDAB-34] | > 1000 | < 25 | 
14 | CC(C)OC(=O)N1C(=O)CCC(N2Cc3c(ccc(CNC(=O)c4ccc(Cl)cc4)c3F)C2=O)C1=O (centres unmarked) [FDAB-127] | > 1000 | < 25 | 
15 | O=C1CCC(N2Cc3c(ccc(CNC(=O)c4ccc(C(F)(F)F)cc4)c3F)C2=O)C(=O)N1 (centres unmarked) [FDAB-61] | 1 to 10 | > 80 | 
16 | O=C1CCC(N2Cc3c(ccc(CNC(=O)c4cc5ccccc5o4)c3Cl)C2=O)C(=O)N1 (centres unmarked) [FDAB-67] | 1 to 10 | > 80 | 
17 | O=C1CCC(N2Cc3c(ccc(CNC(=O)c4ccc(Cl)cn4)c3F)C2=O)C(=O)N1 (centres unmarked) [FDAB-62] | > 1000 | < 25 | 
18 | O=C1CCC(N2Cc3c(ccc(CNC(=O)c4ccc(CO)cc4)c3F)C2=O)C(=O)N1 (centres unmarked) [FDAB-108] | > 1000 | < 25 | 
19 | O=C1CCC(N2Cc3c(ccc(CNC(=O)c4ccc5c(c4)C(=O)CC5)c3F)C2=O)C(=O)N1 (centres unmarked) [FDAB-106] | 10 to 100 | > 80 | 
20 | O=C1CCC(N2Cc3cc(CNC(=O)c4ccc(Cl)cc4)c(F)cc3C2=O)C(=O)N1 (centres unmarked) [FDAB-23] | 10 to 100 | > 80 | 
21 | CC(C)c1ccc(C(=O)NCc2ccc3c(c2F)CN(C2CCC(=O)NC2=O)C3=O)cc1 (centres unmarked) [FDAB-93] | < 1 | > 80 | 
22 | N[C@@H](CC(=O)NCc1ccc2c(c1F)CN(C1CCC(=O)NC1=O)C2=O)C(c1ccccc1)c1ccccc1 (some centres unmarked) [FDAB-181] | 1 to 10 |  | 

Row | SMILES | IC50 ([1]; MV4-11, MV-4-11 cells, 72 h) [nM] | inhibition at 1 µM ([2]; NB-4 cells, compound 1 μM, 6 h) [%] | further results
23 | CC(C)OC(=O)OCN1C(=O)CCC(N2Cc3c(ccc(CNC(=O)c4ccc(Cl)cc4)c3F)C2=O)C1=O (centres unmarked) [FDAB-128] |  |  | IC50 ([1]; MV4-11, 72 h): 10 to 100 nM; inhibition at 1 µM ([2]; NB-4, 6 h): 50 to 80%
24 | O=C(C#Cc1cccc(O)c1)NCc1ccc2c(c1F)CN(C1CCC(=O)NC1=O)C2=O (centres unmarked) [FDAB-146] | < 1 | > 80 | 
25 | O=C1CCC(N2Cc3cc(CNC(=O)c4ccc(Cl)cn4)c(F)cc3C2=O)C(=O)N1 (centres unmarked) [FDAB-56] | > 1000 | < 25 | 
26 | O=C1CCC(N2Cc3cc(CNC(=O)c4cc5cc(Cl)ccc5o4)c(F)cc3C2=O)C(=O)N1 (centres unmarked) [FDAB-20] | 1 to 10 | > 80 | 
27 | Nc1ccc(-c2ccc(C(=O)NCc3ccc4c(c3F)CN(C3CCC(=O)NC3=O)C4=O)cc2)cc1 (centres unmarked) [FDAB-177] | < 1 |  | 
28 | CC(C)(C)c1ccc(C(=O)NCc2ccc3c(c2F)CN(C2CCC(=O)NC2=O)C3=O)c(N)c1 (centres unmarked) [FDAB-172] | < 1 |  | 
29 | O=C1CCC(N2Cc3c(ccc(CNC(=O)Nc4ccc(CCO)c(Cl)c4)c3F)C2=O)C(=O)N1 (centres unmarked) [FDAB-183] | < 1 |  | 
30 | O=C1CCC(N2Cc3cc(CNC(=O)c4ccc(Cl)cn4)c(F)cc3C2=O)C(=O)N1 (centres unmarked) [FDAB-57] |  |  | GSPT1 degradation ([2]; NB-4 cells, compound 1 μM, 6 h): D (D denotes a percentage of degradation less than 25%)
31 | Nc1cc(-c2ccccc2)ccc1C(=O)NCc1ccc2c(c1F)CN(C1CCC(=O)NC1=O)C2=O (centres unmarked) [FDAB-176] | 1 to 10 |  | 
32 | NCCc1ccc(-c2ccc(C#CC(=O)NCc3ccc4c(c3F)CN(C3CCC(=O)NC3=O)C4=O)cc2)cc1 (centres unmarked) [FDAB-188] | 1 to 10 |  | 
33 | O=C1CCC(N2Cc3cc(CNC(=O)Nc4ccc(CCO)c(Cl)c4)ccc3C2=O)C(=O)N1 (centres unmarked) [FDAB-185] | 1 to 10 |  | 
34 | CC(C)(CN)c1ccc(C(=O)NCc2ccc3c(c2F)CN(C2CCC(=O)NC2=O)C3=O)cc1 (centres unmarked) [FDAB-174] | 10 to 100 |  | 
35 | O=C(C#Cc1ccc(-c2ccc(CCO)cc2)cc1)NCc1ccc2c(c1F)CN(C1CCC(=O)NC1=O)C2=O (centres unmarked) [FDAB-187] | < 1 |  | 
36 | NCc1ccc(-c2ccc(C(=O)NCc3ccc4c(c3F)CN(C3CCC(=O)NC3=O)C4=O)cc2)cc1 (centres unmarked) [FDAB-175] | < 1 |  | 
37 | Nc1ccc(-c2ccc(C#CC(=O)NCc3ccc4c(c3F)CN(C3CCC(=O)NC3=O)C4=O)cc2)cc1 (centres unmarked) [FDAB-184] | < 1 |  | 
38 | NCCc1ccc(NC(=O)NCc2ccc3c(c2F)CN(C2CCC(=O)NC2=O)C3=O)cc1Cl (centres unmarked) [FDAB-182] | 1 to 10 |  | 
39 | CC(CCC(=O)NCc1ccc2c(c1F)CN(C1CCC(=O)NC1=O)C2=O)(c1ccc(O)cc1)c1ccc(O)cc1 (centres unmarked) [FDAB-180] | 10 to 100 |  | 
40 | O=C1CCC(N2Cc3c(ccc(CNC(=O)c4ccc(OCc5ccccc5)c(O)c4)c3F)C2=O)C(=O)N1 (centres unmarked) [FDAB-179] | < 1 |  | 
41 | CC(C)(C)c1ccc(C(=O)NCc2ccc3c(c2F)CN(C2CCC(=O)NC2=O)C3=O)cc1O (centres unmarked) [FDAB-173] | < 1 |  | 
42 | COc1cc(C(=O)NCc2ccc3c(c2F)CN(C2CCC(=O)NC2=O)C3=O)c(N)cc1OCc1ccccc1 (centres unmarked) [FDAB-178] | < 1 |  | 
43 | O=C(C#Cc1ccc(-c2ccc(O)cc2)cc1)NCc1ccc2c(c1F)CN(C1CCC(=O)NC1=O)C2=O (centres unmarked) [FDAB-186] | < 1 |  | 
